Experimental data: US6737383B1, “Herbicidal oxadiazolidines” (priority 1999, dated 2004)

Legend:
[1] = test system: corn; test: Test B pre/postemergence corn; assay type: in vivo, Zea mays
Method in brief: (§1)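 Test chemicals in a non-phytotoxic solvent mixture with surfactant were sprayed preemergence onto planted seeds and postemergence onto plants 2 to 18 cm tall (1- to 4-leaf stage). After twelve to sixteen days in a greenhouse, injury was visually rated against untreated controls from 0 (no effect) to 10 (complete control).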

[2] = test system: crabgrass; test: Test B pre/postemergence crabgrass; assay type: in vivo, Digitaria sanguinalis
Method in brief: as §1

[3] = test system: velvetleaf; test: Test B pre/postemergence velvetleaf; assay type: in vivo, Abutilon theophrasti
Method in brief: as §1

[4] = test system: soybean; test: Test B pre/postemergence soybean; assay type: in vivo, Glycine max
Method in brief: as §1

[5] = test system: cocklebur; test: Test B pre/postemergence cocklebur; assay type: in vivo, Xanthium strumarium
Method in brief: as §1

[6] = test system: purple nutsedge; test: Test B pre/postemergence purple nutsedge; assay type: in vivo, Cyperus rotundus
Method in brief: as §1

[7] = test system: pigweed; test: Test B pre/postemergence pigweed; assay type: in vivo, Amaranthus retroflexus
Method in brief: as §1

[8] = test system: wild oat; test: Test B pre/postemergence wild oat; assay type: in vivo, Avena fatua
Method in brief: as §1

[9] = test system: rape; test: Test B pre/postemergence rape; assay type: in vivo, Brassica napus
Method in brief: as §1

[10] = test system: giant foxtail; test: Test B pre/postemergence giant foxtail; assay type: in vivo, Setaria faberii
Method in brief: as §1

[11] = test system: blackgrass; test: Test B pre/postemergence blackgrass; assay type: in vivo, Alopecurus myosuroides
Method in brief: as §1

[12] = test system: bedstraw; test: Test B pre/postemergence bedstraw; assay type: in vivo, Galium aparine
Method in brief: as §1

[13] = test system: morningglory; test: Test B pre/postemergence morningglory; assay type: in vivo, Ipomoea hederacea
Method in brief: as §1

[14] = test system: surinam grass; test: Test B pre/postemergence surinam grass; assay type: in vivo, Brachiaria decumbens
Method in brief: as §1

[15] = test system: sugar beet; test: Test B pre/postemergence sugar beet; assay type: in vivo, Beta vulgaris
Method in brief: as §1

[16] = test system: wheat; test: Test B pre/postemergence wheat; assay type: in vivo, Triticum aestivum
Method in brief: as §1

[17] = Postemergence, Rate 62 g/ha, scale 0 to 10, 0 is no effect, 10 is complete control
[18] = Postemergence, Rate 125 g/ha, scale of 0 to 10 where 0 is no effect and 10 is complete control
[19] = Postemergence, Rate 250 g/ha, scale of 0 to 10, 0 is no effect, 10 is complete control
[20] = Preemergence, Rate 62 g/ha, scale of 0 to 10 where 0 is no effect and 10 is complete control
[21] = Preemergence, Rate 125 g/ha, scale of 0 to 10 where 0 is no effect and 10 is complete control
[22] = Preemergence, Rate 250 g/ha, scale 0 to 10 (0 no effect, 10 complete control)
[23] = Preemergence, Rate 500 g/ha, scale of 0 to 10 where 0 is no effect and 10 is complete control
[24] = Rate 500 g/ha, Postemergence, scale 0 to 10, 0 is no effect, 10 is complete control

SMILES: CC(C)N(C(=O)n1oc(=O)n(Cc2nnc(Cl)s2)c1=O)c1ccccc1 [Compound 654]
- Plant response rating, Corn [1, 17]: 0
- Corn plant response rating [1, 18]: 0
- Corn plant response rating [1, 19]: 0
- Corn plant response rating [1, 20]: 0
- Corn plant response rating [1, 21]: 0
- Plant response rating, Corn [1, 22]: 0
- Plant response rating, Corn [1, 23]: 0
- Corn plant response rating [1, 24]: 0
- Plant response rating, Crabgrass [2, 17]: 0
- Crabgrass plant response rating [2, 18]: 0
- Crabgrass plant response rating [2, 19]: 2
- Crabgrass plant response rating [2, 20]: 0
- Crabgrass plant response rating [2, 21]: 3
- Plant response rating, Crabgrass [2, 22]: 7
- Plant response rating, Crabgrass [2, 23]: 9
- Crabgrass plant response rating [2, 24]: 7
- Plant response rating, Velvetleaf [3, 17]: 0
- Velvetleaf plant response rating [3, 18]: 0
- Velvetleaf plant response rating [3, 20]: 0
- Velvetleaf plant response rating [3, 21]: 0
- Plant response rating, Velvetleaf [3, 22]: 0
- Plant response rating, Velvetleaf [3, 23]: 0
- Velvetleaf plant response rating [3, 24]: 0
- Plant response rating, Soybean [4, 17]: 0
- Soybean plant response rating [4, 18]: 0
- Soybean plant response rating [4, 20]: 0
- Soybean plant response rating [4, 21]: 0
- Plant response rating, Soybean [4, 22]: 0
- Plant response rating, Soybean [4, 23]: 0
- Soybean plant response rating [4, 24]: 0
- Plant response rating, Cocklebur [5, 17]: 0
- Cocklebur plant response rating [5, 18]: 0
- Cocklebur plant response rating [5, 19]: 0
- Cocklebur plant response rating [5, 20]: 0
- Cocklebur plant response rating [5, 21]: 0
- Plant response rating, Cocklebur [5, 22]: 0
- Plant response rating, Cocklebur [5, 23]: 0
- Cocklebur plant response rating [5, 24]: 0
- Plant response rating, Nutsedge [6, 17]: 0
- Nutsedge plant response rating [6, 18]: 0
- Nutsedge plant response rating [6, 20]: 0
- Plant response rating, Nutsedge [6, 22]: 0
- Plant response rating, Nutsedge [6, 23]: 0
- Plant response rating, Redroot pigweed [7, 17]: 0
- Redroot pigweed plant response rating [7, 18]: 0
- Redroot pigweed plant response rating [7, 20]: 0
- Redroot pigweed plant response rating [7, 21]: 0
- Plant response rating, Redroot pigweed [7, 22]: 3
- Plant response rating, Redroot pigweed [7, 23]: 5
- Redroot pigweed plant response rating [7, 24]: 0
- Plant response rating, Wild oats [8, 17]: 0
- Wild oats plant response rating [8, 18]: 0
- Wild oats plant response rating [8, 20]: 0
- Wild oats plant response rating [8, 21]: 0
- Plant response rating, Wild oats [8, 22]: 0
- Plant response rating, Wild oats [8, 23]: 2
- Wild oats plant response rating [8, 24]: 0
- Plant response rating, Rape [9, 17]: 0
- Rape plant response rating [9, 18]: 0
- Rape plant response rating [9, 20]: 0
- Rape plant response rating [9, 21]: 0
- Plant response rating, Rape [9, 22]: 0
- Plant response rating, Rape [9, 23]: 0
- Rape plant response rating [9, 24]: 0
- Plant response rating, Giant foxtail [10, 17]: 0
- Giant foxtail plant response rating [10, 18]: 2
- Giant foxtail plant response rating [10, 19]: 5
- Giant foxtail plant response rating [10, 20]: 0
- Giant foxtail plant response rating [10, 21]: 6
- Plant response rating, Giant foxtail [10, 22]: 9
- Plant response rating, Giant foxtail [10, 23]: 9
- Giant foxtail plant response rating [10, 24]: 7
- Plant response rating, Blackgrass [11, 17]: 0
- Blackgrass plant response rating [11, 18]: 0
- Blackgrass plant response rating [11, 19]: 0
- Blackgrass plant response rating [11, 20]: 0
- Blackgrass plant response rating [11, 21]: 0
- Plant response rating, Blackgrass [11, 22]: 2
- Plant response rating, Blackgrass [11, 23]: 7
- Blackgrass plant response rating [11, 24]: 0
- Bedstraw plant response rating [12, 19]: 0
- Bedstraw plant response rating [12, 20]: 0
- Bedstraw plant response rating [12, 21]: 0
- Plant response rating, Bedstraw [12, 22]: 0
- Plant response rating, Bedstraw [12, 23]: 0
- Bedstraw plant response rating [12, 24]: 0
- Plant response rating, Morningglory [13, 17]: 3
- Morningglory plant response rating [13, 18]: 4
- Morningglory plant response rating [13, 19]: 10
- Morningglory plant response rating [13, 20]: 0
- Morningglory plant response rating [13, 21]: 0
- Plant response rating, Morningglory [13, 22]: 0
- Plant response rating, Morningglory [13, 23]: 0
- Morningglory plant response rating [13, 24]: 10
- Plant response rating, B. signalgrass [14, 17]: 0
- Plant response rating, B. signalgrass [14, 18]: 0
- B. signalgrass plant response rating [14, 19]: 0
- B. signalgrass plant response rating [14, 20]: 0
- B. signalgrass plant response rating [14, 21]: 0
- Plant response rating, B. signalgrass [14, 22]: 0
- Plant response rating, B. signalgrass [14, 23]: 7
- B. signalgrass plant response rating [14, 24]: 0
- Plant response rating, Sugarbeets [15, 17]: 0
- Sugarbeets plant response rating [15, 18]: 0
- Sugarbeets plant response rating [15, 20]: 0
- Sugarbeets plant response rating [15, 21]: 0
- Plant response rating, Sugarbeets [15, 22]: 0
- Plant response rating, Sugarbeets [15, 23]: 0
- Sugarbeets plant response rating [15, 24]: 0
- Plant response rating, Wheat [16, 17]: 0
- Wheat plant response rating [16, 18]: 0
- Wheat plant response rating [16, 20]: 0
- Wheat plant response rating [16, 21]: 0
- Plant response rating, Wheat [16, 22]: 0
- Plant response rating, Wheat [16, 23]: 0
- Wheat plant response rating [16, 24]: 0
